The numbers were not newly measured in patent US20030203047A1 (priority 2002, published 2003), which cites them from elsewhere.

Like-named read-outs stand apart in the source and are kept apart here.

For data set [1] the following is noted: supplementation.
The conditions of data set [2]: supplementation. The source holds these as a separate data set.
The subject of the next data set is young female rats. The following applies: constant infusion.
The target of a further data set is T1, aromatase (Homo sapiens, UniProt P11511).
T1 sequence (P11511 1-503): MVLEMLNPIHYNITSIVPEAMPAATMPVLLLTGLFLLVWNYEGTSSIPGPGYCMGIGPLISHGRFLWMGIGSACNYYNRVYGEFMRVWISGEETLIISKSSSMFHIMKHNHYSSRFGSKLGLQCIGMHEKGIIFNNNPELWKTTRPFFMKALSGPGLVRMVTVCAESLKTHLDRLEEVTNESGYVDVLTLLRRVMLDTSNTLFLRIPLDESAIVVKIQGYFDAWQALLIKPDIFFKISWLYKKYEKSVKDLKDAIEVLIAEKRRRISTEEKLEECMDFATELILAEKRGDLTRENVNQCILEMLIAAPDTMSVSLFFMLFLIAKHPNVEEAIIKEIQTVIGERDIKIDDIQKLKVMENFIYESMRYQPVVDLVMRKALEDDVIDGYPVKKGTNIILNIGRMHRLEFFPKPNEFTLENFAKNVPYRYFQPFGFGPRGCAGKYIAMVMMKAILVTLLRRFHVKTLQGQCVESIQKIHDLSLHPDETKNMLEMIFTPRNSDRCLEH
The following applies: compared with chrysin, AG and ANG.

The conditions of data set [3]: for plasma testosterone: panhypopituitarism.
The next data set has as its system androgen receptor. The following applies: seminal vesicle; relative to the unreduced steroid.
Data set [4] relates to prostate and seminal vesicle weights; levator ani muscles.
A further data set relates to hypogonadal men. The following applies: for waking erection: Asian group of hypogonadal men; for sexual interest and activity, spontaneous erection: Caucasian group of hypogonadal men.
The subject of the next data set is healthy young men. The following applies: 300 mg/wk for six weeks.
Another data set deals with HIV-infected men. The settings on record: pharmacological doses.
For data set [5] the following is noted: in vivo.
The test system of another data set is patients on dialysis. The following applies: compared with placebo.

In the case of `C[C@]12CC[C@H]3[C@@H](CCC4=C[C@@H](O)CC[C@@]43C)[C@@H]1CC[C@@H]2O` [4-androstenediol], the “urine testosterone concentration relative to 4-androstenedione” value in data set [1] is 10 fold. The serum testosterone entry in [2] is “elevations”.

With `C[C@]12CCC(=O)C=C1CC[C@@H]1[C@@H]2CC[C@]2(C)C(=O)CC[C@@H]12` [4-androstenedione], in [2], the serum testosterone result is listed as “elevations”.

As to `C[C@]12CC[C@H]3[C@@H](CC=C4C[C@@H](O)CC[C@@]43C)[C@@H]1CC[C@@H]2O` [5-androstenediol], in the data set on young female rats, the “proportion of protein in the body composition” value was “increased”.

With `COc1ccc(-c2coc3cc(O)cc(O)c3c2=O)cc1` [Biochanin A, 5,7-dihydroxy-4′-methoxyisoflavone], the “aromatase inhibition (in words)” value at aromatase is given as “to a lesser degree”.

For the compound `C[C@]12CC[C@H](O)CC1=CC[C@@H]1[C@@H]2CC[C@]2(C)C(=O)CC[C@@H]12` [DHEA, dehydro-epiandrosterone], the plasma testosterone result in data set [3] (50 mg dose) is “levels similar to those observed in young women”. Also, in data set [3] (50 mg or 200 mg), the “increase of plasma delta 4-androstenedione” value is “significant and dose dependent”; the “plasma estrogens, particularly estradiol” value was “significant and dose dependent increase”. The plasma testosterone result in data set [3] (200 mg dose) is on record as “slightly below the levels observed in normal men”. Besides, the “increase of plasma dihydrotestosterone levels” value in data set [3] (both doses) is on record as “small”.

For the compound `C[C@]12CCC(=O)C[C@@H]1CC[C@@H]1[C@@H]2CC[C@]2(C)[C@@H](O)CC[C@@H]12` [DHT, 5α-androstan-17β-ol-3-one], the “change of affinity to the androgen receptor on 5-alpha-reduction” value in the data set with androgen receptor is “increasing by seven- to eight-fold”.

`C[C@@H]1CC2=CC(=O)CC[C@@H]2[C@H]2CC[C@]3(C)[C@@H](O)CC[C@H]3[C@@H]21` [MENT, 7α-methyl-19-nor-testosterone]: the “androgenic potency relative to testosterone” value in data set [4] (measured by prostate and seminal vesicle weights) is “four- to five-times”. Also, the “anabolic potency relative to testosterone” value in data set [4] (measured in the levator ani muscles) was “ten-times”. Besides, in the data set on hypogonadal men, the waking erection result was “increased”; the “sexual interest and activity, spontaneous erection” value is recorded as “significant increases”.

Turning to `CCCCCCC(=O)O[C@H]1CC[C@H]2[C@@H]3CCC4=CC(=O)CC[C@]4(C)[C@H]3CC[C@]12C` [TE, testosterone enanthate], the “circumferences with significant increases (of fifteen)” value in the data set with healthy young men is listed as “shoulders”. For the same compound, in the data set with hypogonadal men, the waking erection result is reported as “increased”; the “sexual interest and activity, spontaneous erection” value is “significant increases”.

For the compound `C[C@]12CC[C@H]3[C@@H](CCC4=CC(=O)CC[C@@]43C)[C@@H]1CC[C@@H]2O` [Testosterone], the “proportion of protein in the body composition” value in the data set with young female rats is given as “increased”.

For `CCCCCCCCCC(=O)O[C@H]1CC[C@H]2[C@@H]3CCC4=CC(=O)CC[C@@H]4[C@H]3CC[C@]12C` [nandrolone decanoate], the “circumferences with significant increases (of fifteen)” value in the data set on healthy young men was “shoulders and chest”. In addition, the “total weight, lean body mass, body cell mass, muscle size and strength” value in the data set on HIV-infected men was “significant gains”.

As to `C[C@]12CC[C@H]3[C@@H](CCC4=CC(=O)CC[C@@H]43)[C@@H]1CC[C@@H]2O` [nandrolone, 19-nor-testosterone], in the data set on young female rats, the energy expenditure entry is on record as “increased”. In addition, in [5], the “adverse finding associated with use” value is listed as “azoospermia” and the “decrease in HDL-cholesterol” value is 25-27%. Besides, the lean body mass entry in the data set on patients on dialysis was “increased significantly”.
